Key:
[1] = system: porcine carotid arteries exposed to porcine pancreatic elastase; assay: Tissue resistance to elastase degradation after treatment; format: biochemical; conditions: 0.6% Glut, 0.15% PGG, 20 minutes total treatment (cocktail 20 min or 10 min + 10 min sequential); elastase 3 units/mL 24 hrs 37° C.; compared to saline controls
Procedure: This example involves model results based on in vitro treatment of tissue samples for period of time that are realistic for in vivo applications. Specifically, tissue resistance to elastase degradation after treatment with various reagents is discussed. Specifically, porcine carotid arteries were treated with saline (control, for 20 minutes), Glut (for 20 minutes), PGG (for 20 minutes), or a combination of the two (Glut+PGG for 20 minutes, or Glut for 10 minutes followed by a separate incubation with PGG for 10 minutes). Concentrations of the reagents used were 0.6% (w/v) for Glut, 0.15% (w/v) for PGG and 9 g/L for physiological saline.
The treated tissue was then exposed to an in vitro elastase digestion assay to subject the treated tissue to digestion for 24 hrs. Briefly, tissue samples were incubated individually with 1 mL of 3 units/mL porcine pancreatic elastase (Elastin Products Company; Owensville, Mo.) dissolved in 100 mM Tris buffer, 1 mM CaCl2, 0.02% NaN3, pH 7.8. Incubation with the elastase was conducted for 24 hrs at 37° C. with orbital shaking at 500 rpm. Because the values shown are percentage of digestion, the lower the value, the better the reagent used performed in resisting elastase degradation. […] It should be noted that the digestion model used in this experiment is a very accelerated and aggressive digestion model.

[2] = system: porcine aortic wall exposed to type I collagenase; assay: Tissue resistance to collagenase degradation after treatment; format: biochemical; conditions: type I collagenase 150 U/mL, 24 hours, 37° C.; fresh sample over 85% digested
Procedure: Tissue resistance to collagenase degradation after treatment with various reagents is discussed. Specifically, samples of porcine aortic wall were either left untreated (fresh) or treated with Glut alone or Glut followed by tannic acid (TA). Glut treatment was performed with 0.6% (w/v) Glut for 1 day, and then 0.2% (w/v) Glut for 7 days at room temperature; Glut/TA treatment was performed with 0.6% (w/v) Glut for 1 day, and then 0.2% (w/v) Glut for 7 days at room temperature followed by 0.15% (w/v) TA for 4 days at 37° C. The treated samples were rinsed 3 times (1 hour each) in 100 mL water, and lyophilized to record dry weight. Samples with the amount of ˜15 to 25 mg dry weight were immersed in 1.2 mL of type I collagenase (150 U/mL) dissolved in 50 mM Tris buffer, 10 mM CaCl2, pH 7.4, and incubated at 37° C. with orbital shaking at 650 rpm for 24 hours. Following this exposure to collagenase, samples were centrifuged (10000 rpm, 10 minutes, 4° C.), individually rinsed three times in 1 mL water, lyophilized to obtain dry weight after collagenase, and the percent of digested tissue was calculated.
The percentage of tissue digestion was compared in graphical format in FIG. 4.

[3] = collagen crosslinking/stabilization; cited from earlier work

| percent of digested tissue (mass loss) [2] | SMILES | percentage digestion by elastase (resistance to degradation) [1] | toxicity [3] |
| --- | --- | --- | --- |
| over 20% | O=CCCCC=O [Glut, Glutaraldehyde] | slightly improved the resistance of the tissue to degradation |  |
|  | COC(=O)C1=CO[C@@H](O)[C@@H]2C(CO)=CC[C@H]12 [genipin, Genipin] |  | relatively non-toxic |
